“And” between values parts separate entries of the source, which are not always exact repeats. Equal entries are not always repeated. “Also recorded” adds a separate entry of the source.
What was measured:
293T cells [1] = assay: Fluorescent detection of Fluc-mRNA (transfection efficiency of LNP formulations in cells); type: cell-based
Experimental: (§1) Cell recovery and passage: 293T cells were recovered, cultured in a culture dish, and passaged to the required number of cells.
(§2) Seeding plate: The cells in the culture dish were digested and counted. Cells were spread in a 96-well plate at 10,000 cells per well and in a 12-well plate at 150,000 cells per well. Cells were cultured overnight until the cells adhered to the wall.
A LNP formulation containing 0.3 μg of Fluc-mRNA (the carrier components of the LNP formulation were cationic lipid, neutral lipid, structured lipid and polymer-conjugated lipid with a molar ratio of 50:10:38.5:1.5, wherein the cationic lipid was listed in Table 1) was added to the cell culture medium of a 96-well plate, and further incubated for 24 hours. The corresponding reagent was added according to the instructions of the […] Luciferase Assay Kit, and the fluorescence expression intensity of each well was detected by an IVIS fluorescence detection system. This test verified the transfection efficiency of LNP formulations in cells.
In order to further compare the intracellular transfection efficiency of LNP formulations prepared from cationic lipid YK-009 and compound 25, we prepared LNP formulations with Fluc-mRNA contents of 0.3 μg, 0.225 μg, 0.15 μg and 0.075 μg, respectively (the carrier components of the LNP formulation were cationic lipid, neutral lipid, structured lipid and polymer-conjugated lipid with a molar ratio of 50:10:38.5:1.5, wherein the cationic lipid was YK-009 or compound 25). The intracellular transfection activity of the prepared LNP formulations was detected, and the detection method was the same as above.

[2] = Particle size and polydispersity index (PDI) of lipid nanoparticles by dynamic light scattering; type: physicochemical; details: LNP formulation of Example 4, cationic lipid/DSPC/cholesterol/DMG-PEG2000 50:10:38.5:1.5; 25° C., 90° scattering angle
Experimental: The particle size and polydispersity index (PDI) were determined by dynamic light scattering using Malvern laser particle size analyzer.
10 μL of the liposome solution was weighed, diluted to 1 mL with RNase-free deionized water, and added to the sample pool. Each sample was measured in triplicate. The measurement conditions were: 90° scattering angle, and 25° C.

female BALB/C mice = assay: Mouse live imaging test of LNP formulations of Fluc-mRNA; type: in vivo
Experimental: A LNP formulation containing 10 μg of Fluc-mRNA was intramuscularly injected into female BALB/C mice aged 4-6 weeks and weighing 17-19 g, and at specific time points (3 h, 6 h, 24 h, 48 h and 72 h) after administration, mice were injected intraperitoneally with a fluorescent imaging substrate. The mice moved freely for 5 minutes, and then the average radiation intensity (corresponding to fluorescence expression intensity) of the protein expressed by the mRNA carried by LNP in mice was detected using the IVIS Spectrum small animal live imager.
To compare the protein expression and duration in mice of LNP formulations prepared from cationic lipid YK-009 and compound 25, we prepared LNP formulations with Fluc-mRNA contents of 10 μg, 7.5 μg, 5 μg and 2.5 μg (the carrier components of LNP formulations were cationic lipid, neutral lipid, structured lipid and polymer-conjugated lipid with a molar ratio of 50:10:38.5:1.5, wherein the cationic lipid was YK-009 or compound 25). The mouse live imaging test method was the same as above.

293T cells [3] = assay: Cell survival rate assay (CCK-8); type: cell-based; details: for Cell survival rate (%): 24 hours
Experimental: as §1, §2
A LNP formulation containing 1.5 μg of Fluc-mRNA (the carrier component of the LNP formulation was cationic lipid, neutral lipid, structured lipid and polymer-conjugated lipid with a molar ratio of 50:10:38.5:1.5, wherein the cationic lipid was listed in Table 1) was added to the cell culture medium of a 96-well plate, and further cultivated for 24 hours. 10 μL of CCK-8 solution was then added to each well, and the culture plate was incubated in an incubator for 1 hour. The absorbance at 450 nm was measured by a microplate reader.
To compare the cytotoxicity of LNP formulations prepared from cationic lipid YK-009 and compound 25, we prepared LNP formulations with Fluc-mRNA contents of 1.5 μg, 1.125 μg, 0.75 μg and 0.375 μg (the carrier components of LNP formulations were cationic lipid, neutral lipid, structured lipid and polymer-conjugated lipid with a molar ratio of 50:10:38.5:1.5, wherein the cationic lipid was YK-009 or compound 25). The assay method of cell survival rate was the same as above.

[4] = mRNA transfection, time not stated

CCCCCCCCCCOC(=O)CCCN(CCO)CCCCCC(=O)OCC(CCCCCCCC)CCCCCCCC [YK-009, 2-octyldecyl 6-((4-(decyloxy)-4-oxobutyl)(2-hydroxyethyl)amino)hexanoate]
RLU value / cell transfection efficiency, times that of MC3 (293T cells [1]; Fluc-mRNA LNP formulation): 42 times and 40 times
RLU value / cell transfection efficiency, times that of YK-004 (293T cells [1]; Fluc-mRNA LNP formulation): 39 times
RLU value / cell transfection efficiency, times that of YK-010 (293T cells [1]; Fluc-mRNA LNP formulation): 58 times and ~60 times
RLU value / cell transfection efficiency, times that of compound 27 (293T cells [1]; Fluc-mRNA LNP formulation): 13 times
fluorescence absorption, times that of the compound 25 formulation (293T cells [1]; LNP formulation containing 0.075 μg of Fluc-mRNA): 3.7 times
fluorescence absorption, times that of the compound 25 formulation (293T cells [1]; LNP formulation containing 0.15 μg of Fluc-mRNA): 4.0 times
fluorescence absorption, times that of the compound 25 formulation (293T cells [1]; LNP formulation containing 0.225 μg of Fluc-mRNA): 7.0 times
fluorescence absorption, times that of the compound 25 formulation (293T cells [1]; LNP formulation containing 0.3 μg of Fluc-mRNA): 4.4 times
cell transfection efficiency, fold compared with compound 25 (293T cells [1]; mRNA transfection, content not stated): 7 times
PDI (%) [2]: 18.2%
Particle size (nm) [2]: 136.44 nm
expression intensity of Fluc-mRNA in mice over time (in words) (female BALB/C mice; 3 h to 72 h after intramuscular injection): highest expression intensity; also recorded: maintain high expression in vivo for a long time
expression in mice, times higher than that for MC3 (female BALB/C mice; [4]): more than 25 times
expression in mice, times higher than that for compound 27 (female BALB/C mice; [4]): > 6 times
increase in expression in mice compared with compound 25 (female BALB/C mice; [4]): 7 fold
difference in toxicity to transfected cells between YK-009 and YK-010 (293T cells [3]): ≥ 25%
Cell survival rate (%) (293T cells [3]; Fluc-mRNA content 0.375 μg): 100%
Cell survival rate (%) (293T cells [3]; Fluc-mRNA content 0.75 μg): 100%
Cell survival rate (%) (293T cells [3]; Fluc-mRNA content 1.125 μg): 100%
Cell survival rate (%) (293T cells [3]; Fluc-mRNA content 1.5 μg): 100%
Cell survival rate (%) (293T cells [3]; LNP formulation containing 1.5 μg of Fluc-mRNA): 100%
reduction in toxicity to transfected cells compared with compound 25 (293T cells [3]; mRNA transfection): 9%
toxicity to transfected cells, lower than that of MC3 (293T cells [3]; mRNA transfection): 12%
toxicity to transfected cells, lower than that of compound 23 (293T cells [3]; mRNA transfection): 13%
toxicity to transfected cells, lower than that of compound 27 (293T cells [3]; mRNA transfection): 16%

Reference: patent US12171876B2, “Cationic lipid compound, composition containing same and use thereof” (HANGZHOU TIANLONG PHARMACEUTICAL CO., LTD., priority 2022, dated 2024)
